Test results taken from the Deep4Chem optical property database.

Assay: solvent given as SMILES

With C(=C(c1ccccc1)c1ccccc1)c1ccc(-c2ccc(-c3nc4c5ccccc5c5ccccc5c4n3-c3cccc(-c4ccc(C=C(c5ccccc5)c5ccccc5)cc4)c3)cc2)cc1 the emission maximum (in C1CCOC1) was 449 nm.

Compound CCC1(CC)c2cc(N(C)C)ccc2-c2ccc(C(F)(F)F)cc21 has an emission maximum (in C1CCCCC1) of 360 nm, an emission maximum (in CC#N) of 337 nm and an emission maximum (in CCO) of 388 nm. It also gave an emission maximum (in CCOCC) of 373 nm, an emission maximum (in CS(C)=O) of 414 nm and an emission maximum (in ClCCl) of 387 nm. For the same compound, the emission maximum (in c1ccccc1) was 374 nm.

CC1(C)C(/C=C/C=C/C=C/C=C2/N(CS(=O)(=O)[O-])c3ccc(S(=O)(=O)[O-])cc3C2(C)C)=[N+](CS(=O)(=O)[O-])c2ccc(S(=O)(=O)[O-])cc21 gave an emission maximum (in CO) of 776 nm and an emission maximum (in O) of 771 nm.

COc1ccc(C2=[N+]3C(=Nc4c(-c5cc(OC)c(OC)c(OC)c5)c(Br)c(-c5ccc(OC)cc5)n4[B-]3(F)F)C(c3cc(OC)c(OC)c(OC)c3)=C2Br)cc1 gave an emission maximum (in Cc1ccccc1) of 723 nm.

In the case of O=c1c(Nc2ccccc2)c([O-])c1=[NH+]c1ccccc1, the emission maximum (in C1CCOC1) is reported as 477 nm, the emission maximum (in CC#N) is reported as 496 nm and the emission maximum (in CC(C)=O) is reported as 490 nm. For the same compound, the emission maximum (in CCO) was 492 nm, the emission maximum (in CCOCC) was 484 nm and the emission maximum (in CN1CCCC1=O) was 495 nm. It also gave an emission maximum (in CN(C)C=O) of 502 nm, an emission maximum (in CO) of 498 nm and an emission maximum (in CS(C)=O) of 504 nm. It also gave an emission maximum (in O) of 504 nm.

In the case of Clc1nc(Cl)nc(Nc2cc3ccc4cccc5ccc(c2)c3c45)n1, the emission maximum (in CCCCOCCCC) is reported as 374 nm.

CN(C)c1cc(-c2ccc(C#Cc3cc[n+](C)cc3)cc2)cc2ccccc12 gave an emission maximum (in ClCCl) of 510 nm.

Work on CCCCCCCCc1ccc(-c2c3cc(-c4cc(CCCCCCCC)c(-c5ccc(-c6sc(/C=C7\SC(N8CCCCC8)=NC7=O)cc6CCCCCCCC)s5)s4)sc3c(-c3ccc(CCCCCCCC)s3)c3cc(-c4cc(CCCCCCCC)c(-c5ccc(-c6sc(/C=C7\SC(N8CCCCC8)=NC7=O)cc6CCCCCCCC)s5)s4)sc23)s1 yielded an emission maximum (in ClC(Cl)Cl) of 576 nm.

For C#CCn1c2ccccc2c2cc(/C=C/C3=[N+]4C(=C(c5ccc(I)cc5)c5c(C)c(Cl)c(/C=C/c6ccc7c(c6)c6ccccc6n7CC#C)n5[B-]4(F)F)C(C)=C3Cl)ccc21, the emission maximum (in CC#N) was 731 nm, the emission maximum (in CS(C)=O) was 749 nm and the emission maximum (in ClC(Cl)Cl) was 730 nm.

Compound Cc1oc2c(Cl)cc3c(C)cc(=O)oc3c2c1C has an emission maximum (in C1CCCCC1) of 403 nm, an emission maximum (in C1COCCO1) of 416 nm and an emission maximum (in CC#N) of 431 nm. It also gave an emission maximum (in CCO) of 440 nm and an emission maximum (in OCC(F)(F)F) of 469 nm.

For C/C(=N\Nc1ccc(C#N)cc1)c1ccccn1, the emission maximum (in CC#N) was 463 nm, the emission maximum (in CCCCCC) was 452 nm and the emission maximum (in CO) was 482 nm. For the same compound, the emission maximum (in CS(C)=O) was 475 nm and the emission maximum (in ClC(Cl)Cl) was 460 nm.

CCC1=C(C)C2=C(C)c3cccn3[B-](F)(F)[N+]2=C1C gave an emission maximum (in C1CCCCC1) of 515 nm, an emission maximum (in CC(C)=O) of 512.5 nm and an emission maximum (in CCO) of 513.5 nm. For the same compound, the emission maximum (in CCOC(C)=O) was 512.5 nm, the emission maximum (in CO) was 512.5 nm and the emission maximum (in OCC(F)(F)F) was 511 nm.

CCCCCCCCCCCCn1nnc(-c2ccc(C#Cc3ccc(C#Cc4ccc(-c5nnn(CCCCCCCCCCCC)n5)cc4)c4nc5c6ccccc6c6ccccc6c5nc34)cc2)n1 showed an emission maximum (in C1CCOC1) of 495 nm, an emission maximum (in Cc1ccccc1) of 488 nm and an emission maximum (in ClCCl) of 502 nm.

CCCCCCOc1cc(C=C2C(=O)c3ccccc3C2=O)c(OCCCCCC)cc1C=C1C(=O)c2ccccc2C1=O showed an emission maximum (in ClCCl) of 622 nm.

Compound CN(C)c1ccc(-n2c(-c3ccc(C#N)cc3)nc3ccccc32)cc1 has an emission maximum (in CC#N) of 586 nm.

C[Si](C)(c1c2ccccc2cc2ccccc12)[Si](C)(C)c1c2ccccc2cc2ccccc12 gave an emission maximum (in C1CCCCC1) of 425 nm and an emission maximum (in CC#N) of 425 nm.

Compound CC1(C)c2ccccc2-c2cc3c(cc21)c1ccccc1n3-c1ccncc1 has an emission maximum (in ClCCl) of 370 nm.

In the case of CCN(CC)c1ccc2c(-c3ccc(S(=O)(=O)[O-])cc3S(=O)(=O)[O-])c3ccc(=[N+](CC)CC)cc-3oc2c1, the emission maximum (in CC#N) is reported as 573 nm, the emission maximum (in CCO) is reported as 578 nm and the emission maximum (in CN(C)C=O) is reported as 574 nm. It also gave an emission maximum (in O) of 588 nm.

Cc1ccc(C2=C3C=CC=[N+]3[B-](F)(F)n3cccc32)cc1 gave an emission maximum (in C1CCCCC1) of 516 nm, an emission maximum (in CC#N) of 514.5 nm and an emission maximum (in CCO) of 514.5 nm. The emission maximum (in CCOC(C)=O) was 514.5 nm, the emission maximum (in CO) was 513.5 nm and the emission maximum (in OCC(F)(F)F) was 509.5 nm.

In the case of COc1ccc(-c2ccc(-c3ccc(OC)cc3)cc2)cc1, the emission maximum (in C1CCCCC1) is reported as 360 nm.

Compound CN(C)c1ccc(/C=C/C=C/C=C/c2ccc(B(O)O)cc2)cc1 has an emission maximum (in C1CCCCC1) of 470 nm.

c1ccc(N(c2ccccc2)c2ccc(-c3nc4ccccc4n3-c3ccccc3)cc2)cc1 showed an emission maximum (in CC#N) of 444 nm.

Compound COc1ccc(Oc2ccc3c4c(cccc24)C(=O)N(c2c(C(C)C)cccc2C(C)C)C3=O)cc1 has an emission maximum (in ClCCl) of 434 nm.

In the case of Fc1c(F)c(-n2c3ccccc3c3ccccc32)c(F)c(F)c1/C=C/C(=C(c1ccccc1)c1ccccc1)c1ccccc1, the emission maximum (in Cc1ccccc1) is reported as 445 nm.

CCCCCCCC[Si](C)(C)c1cccc2ccccc12 gave an emission maximum (in C1CCCCC1) of 329 nm.

Work on CCc1c(CC)c2n(c1C)[B-](F)(F)[N+]1=C(C)c3cc4c(cc3C1=C2)=[N+]1C(=Cc2c(CC)c(CC)c(C)n2[B-]1(F)F)C=4C yielded an emission maximum (in ClC(Cl)Cl) of 774 nm.

Compound CCCCCC(=O)c1ccc2c3c(sc2c1)-c1ccccc1P3(=O)c1ccccc1 (stereo not drawn) has an emission maximum (in ClCCl) of 428 nm.

For COc1cc(-c2cc(-c3ccccc3)c(-c3ccccc3)c(-c3ccccc3)c2-c2ccccc2)c(OC)cc1-c1ccc(N(C)C)cc1, the emission maximum (in ClC(Cl)Cl) was 396 nm.

In the case of C(#Cc1ccc2ncsc2c1)c1ccc(N(c2ccccc2)c2ccccc2)cc1, the emission maximum (in Cc1ccccc1) is reported as 428 nm.

CC(C)(C)NC(=O)c1cccc2ccc3c4ccc(F)cc4c4cc(F)ccc4c3c12 gave an emission maximum (in ClCCl) of 388 nm.

In the case of CC(C)(C)c1ccc2c(c1)c1cc(C(C)(C)C)ccc1n2-c1ccccc1-c1nc(-c2ccccc2P(=O)(c2ccccc2)c2ccccc2)nc(-c2ccccc2P(=O)(c2ccccc2)c2ccccc2)n1, the emission maximum (in C1CCOC1) is reported as 515.1 nm, the emission maximum (in CC#N) is reported as 548.81 nm and the emission maximum (in CC(C)=O) is reported as 532.75 nm. It also gave an emission maximum (in CN(C)C=O) of 539.75 nm, an emission maximum (in Cc1ccccc1) of 498.41 nm and an emission maximum (in ClC(Cl)Cl) of 511.13 nm. For the same compound, the emission maximum (in ClCCl) was 526.23 nm and the emission maximum (in O=P(c1ccccc1)(c1ccccc1)c1ccccc1Oc1ccccc1P(=O)(c1ccccc1)c1ccccc1) was 504 nm.

In the case of Cc1cc(-c2ccc3ccccc3c2)cc(C)[o+]1, the emission maximum (in ClCCl) is reported as 544 nm.

CCc1ccccc1-c1c2ccccc2c(C#Cc2ccccc2)c2cc3ccccc3cc12 showed an emission maximum (in ClCCl) of 537 nm.

F[B-]1(F)n2c(Cl)c(Cl)c(Br)c2C(Cl)=C2C(Br)=C(Cl)C(Cl)=[N+]21 showed an emission maximum (in ClCCl) of 560 nm.

CC(=O)c1nc(-c2ccc(N(c3ccccc3)c3ccccc3)cc2)oc1C gave an emission maximum (in CC#N) of 452 nm, an emission maximum (in CCCCCC) of 385 nm and an emission maximum (in CCO) of 468 nm. For the same compound, the emission maximum (in CCOC(C)=O) was 419 nm, the emission maximum (in CCOCC) was 408 nm and the emission maximum (in ClCCl) was 448 nm.

Work on c1ccc2c(c1)c1ccccc1n2-c1ccc(-c2ccc(-c3ccc(-n4c5ccccc5c5ccccc54)nc3-n3c4ccccc4c4ccccc43)nn2)c(-n2c3ccccc3c3ccccc32)n1 yielded an emission maximum (in CC#N) of 474.18 nm, an emission maximum (in Cc1ccccc1) of 400 nm and an emission maximum (in ClCCl) of 419.62 nm.

With CCCCCCN(CCCCCC)c1ccc(C#Cc2c(F)c(F)c(F)c(F)c2F)cc1 the emission maximum (in CO) was 464 nm and the emission maximum (in ClCCl) was 502 nm.

Work on C(=C\c1cnccn1)/c1ccc(N(c2ccccc2)c2ccc(/C=C/c3cnccn3)cc2)cc1 yielded an emission maximum (in ClCCl) of 569 nm.

For CC(C)(C)c1ccc(-c2c3c(c(-c4ccc(C(C)(C)C)cc4)c4cc5ccccc5cc24)Cc2c(c(-c4ccc(C(C)(C)C)cc4)c4cc5ccccc5cc4c2-c2ccc(C(C)(C)C)cc2)C3)cc1, the emission maximum (in ClCCl) was 409 nm.

In the case of Cc1ccccc1-c1c2ccc(=[N+]3CCN(C(=O)OC(C)(C)C)CC3)cc-2oc2cc(N3CCN(C(=O)OC(C)(C)C)CC3)ccc12, the emission maximum (in CCO) is reported as 580 nm and the emission maximum (in ClCCl) is reported as 577 nm.

With CN(C)c1ccc(-c2nc3ccccc3n2-c2ccccc2)cc1 the emission maximum (in CC#N) was 397 nm.

In the case of c1ccc(-c2nnc(-c3ccc(N4c5ccccc5N(c5ccccc5)c5ccccc54)cc3)o2)cc1, the emission maximum (in Cc1ccccc1) is reported as 577 nm and the emission maximum (in c1cc(-n2c3ccccc3c3ccccc32)cc(-n2c3ccccc3c3ccccc32)c1) is reported as 550 nm.

CC(=O)OCCN1C(=O)c2cccc3c(Oc4ccccc4C)ccc(c23)C1=O showed an emission maximum (in ClC(Cl)Cl) of 419 nm.

CN(C)c1ccc(-c2ccc(-c3cc(-c4ccccc4)c(-c4ccccc4)c(-c4ccccc4)c3-c3ccccc3)nc2)cc1 showed an emission maximum (in ClC(Cl)Cl) of 429 nm.

In the case of c1ccc(N(c2ccccc2)c2ccc(-c3ncc(-c4ccc(-c5ccc(-c6cnc(-c7ccc(N(c8ccccc8)c8ccccc8)cc7)s6)s5)s4)s3)cc2)cc1, the emission maximum (in CO) is reported as 509 nm.

Work on CC(=O)Nc1ccccc1C(=O)OC1CC(C)CCC1C(C)C (stereo not drawn) yielded an emission maximum (in C1CCCCC1) of 363 nm, an emission maximum (in CC#N) of 369 nm and an emission maximum (in CCO) of 370 nm. The emission maximum (in Cc1ccccc1) was 368 nm.

For CCc1cccc(CC)c1-c1c2ccccc2c(-c2c(CC)cccc2CC)c2cc3ccccc3cc12, the emission maximum (in ClCCl) was 501 nm.

CC(C)CN1C(=O)/C(=C/c2ccc(C#N)cc2)C=C1c1ccccc1 gave an emission maximum (in C1COCCO1) of 598 nm.

Cc1ccc2c(c1)C1(c3ccccc3-c3ccccc31)c1cc(C)ccc1N2c1ccc2c(c1)Sc1ccccc1P2(=S)c1ccccc1 (stereo not drawn) showed an emission maximum (in Cc1ccccc1) of 454.61 nm.

Compound CC(C)c1cccc(C(C)C)c1N1C(=O)c2ccc3c4c(-c5ccc(C(=O)O)cc5)c5ccc6c7c(cc8c9cc(C(=O)O)ccc9c(c9ccc(c2c39)C1=O)c4c8c57)C(=O)N(c1c(C(C)C)cccc1C(C)C)C6=O has an emission maximum (in ClCCl) of 626 nm.

Compound COc1ccc2c(c1)CCc1c(-c3ccccc3)c3n(c1-2)[B-](F)(F)[N+]1=c2ccc4ccccc4c2=C(c2ccccc2)C1=N3 has an emission maximum (in ClC(Cl)Cl) of 730 nm.

In the case of COc1ccc2cc(C3=[N+]4C(=Nc5c(-c6ccccc6)cc(-c6ccc7cc(OC)ccc7c6)n5[B-]4(F)F)C(c4ccccc4)=C3)ccc2c1, the emission maximum (in ClC(Cl)Cl) is reported as 733 nm and the emission maximum (in ClCCl) is reported as 733 nm.

Work on CCCn1c(-c2cc(-c3nc4ccccc4n3CCC)cc(-c3nc4ccccc4n3CCC)c2)nc2ccccc21 yielded an emission maximum (in CS(C)=O) of 381 nm.

Compound CCOC(=O)C1=C(C(=O)OCC)C2(c3ccccc3-c3ccccc32)[C@@H](c2ccc([N+](=O)[O-])cc2)C=C2c3cc(OC)c(OC)cc3CCN21 has an emission maximum (in ClCCl) of 430 nm.

COC(=O)c1ccc(/C=C2\C=C(c3ccc(OC)c(OC)c3)NC2=O)cc1 showed an emission maximum (in C1COCCO1) of 574 nm.
